# US20080262097A1, “Formulations” (priority 2005, published 2008)
# Legend:
# P. acnes PRP-010 = test: MIC assay; format: cell-based, Propionibacterium acnes; conditions: Cutibacterium acnes, PRP010; P. acnes PRP-010 (resistance MLSK)
# Protocol: Other propionibacterial strains were also tested, as described in Example 8 below. These included certain antibiotic resistant propionibacteria, such as the two P. acnes strains PRP-010 and PRP-053 which are resistant respectively to macrolides-lincosamides-streptogramins-ketolides (MLSK) and to macrolides-lincosamides-streptogramins (MLS) and tetracycline—in other words, PRP-010 is resistant to erythromycin and clindamycin, and […] to erythromycin, clindamycin and tetracycline.
# (§1) The Propionibacterium spp organisms were cultured and maintained on Wilkins-Chalgren Anaerobe Medium (agar and broth) at pH 6.0; cultures were incubated anaerobically at 37° C. for 72 hours.
# This is a standard international method for quantitatively assessing the antimicrobial activity of a compound in a liquid medium. The method used a 96-well microtitre plate, capable of holding about 200 μl of liquid per well. […] The culture media were as described above for the relevant test organisms.
# The wells were inoculated with a liquid suspension of freshly grown micro-organism and incubated under the conditions described above. After incubation, the microtitre plate was examined visually (with the aid of a light box) for cell pellets in and/or opaque wells, which would indicate microbial growth. The MIC value was recorded as the lowest concentration of test compound required to inhibit microbial growth, ie, the lowest concentration for which the liquid in the well remained clear.
# The assays were conducted in duplicate and included both negative (culture medium only) and positive (culture medium, diluting solvent and inoculum) controls.
# S. aureus ATCC 29213 [1] = test: Supplemented disc diffusion assay (DDA + salt, lipid or blood); format: cell-based, Staphylococcus aureus; conditions: 200 μg per disc (thymoquinone 50 μg); for DDA + blood: agar supplemented with blood; for DDA + lipid: agar supplemented with lipid; for DDA + salt: agar supplemented with salt
# Protocol: The staphylococci and enterococci were cultured and maintained on Mueller-Hinton Medium (agar and broth) at pH 7.2; they were incubated aerobically at 37° C. for 24 hours. A sterile paper disc was impregnated with a sample of the test compound and a minimum of 30 minutes allowed for the solvents to evaporate as far as possible. The disc was then placed on an agar plate onto which the test micro-organism had been inoculated. The plate was then incubated under the conditions described above, following which it was examined visually for signs of bacterial growth. If the test compound had antimicrobial activity, a circular zone of no growth would be obtained around the disc. The diameter of this zone of “inhibition” was measured using a ProtoCOL™ automated zone sizer (Synbiosis, Cambridge, UK). In general, a greater diameter and/or area of the zone of inhibition indicates a greater antimicrobial activity in the relevant test compound, although other factors such as test compound mobility through the agar gel may also influence the result. Either the DDA or the SDDA tests may be carried out using an agar gel supplemented with blood, lipid and/or salt to simulate some of the major components present in human skin and to assess whether these substances might reduce the antimicrobial activity observed for the test compounds. Performance under these conditions can provide a more reliable indication of activity on topical application. […] MIC, MBC and DDA assays, as described above, were carried out using the test compound benzoyl peroxide (BP) and a range of different benzoquinones and hydroquinones. Supplemented DDA assays, in the presence of salt, lipid and blood, were also conducted. […] The exceptions were the thymoquinone assays, in which only 50 μg of the benzoquinone was used.
# P. acnes NCTC 737 [2] = test: Supplemented disc diffusion assay (DDA + salt or lipid); format: cell-based, Propionibacterium acnes; conditions: 200 μg per disc; for DDA + lipid: agar supplemented with lipid; for DDA + salt: agar supplemented with salt
# Protocol: The Propionibacterium spp organisms were cultured and maintained on Wilkins-Chalgren Anaerobe Medium (agar and broth) at pH 6.0; cultures were incubated anaerobically at 37° C. for 72 hours. A sterile paper disc was impregnated with a sample of the test compound and a minimum of 30 minutes allowed for the solvents to evaporate as far as possible. The disc was then placed on an agar plate onto which the test micro-organism had been inoculated. The plate was then incubated under the conditions described above, following which it was examined visually for signs of bacterial growth. If the test compound had antimicrobial activity, a circular zone of no growth would be obtained around the disc. The diameter of this zone of “inhibition” was measured using a ProtoCOL™ automated zone sizer (Synbiosis, Cambridge, UK). In general, a greater diameter and/or area of the zone of inhibition indicates a greater antimicrobial activity in the relevant test compound, although other factors such as test compound mobility through the agar gel may also influence the result. Either the DDA or the SDDA tests may be carried out using an agar gel supplemented with blood, lipid and/or salt to simulate some of the major components present in human skin and to assess whether these substances might reduce the antimicrobial activity observed for the test compounds. Performance under these conditions can provide a more reliable indication of activity on topical application. […] MIC, MBC and DDA assays, as described above, were carried out using BP and a range of different benzoquinones and hydroquinones. Supplemented DDA assays, in the presence of salt and lipid, were also conducted.
# P. acnes NCTC 737 [3] = test: Synergy disc diffusion assay (SDDA); format: cell-based, Propionibacterium acnes; conditions: for SDDA area increase / SDDA increase: quinone + BP; for SDDA area increase: over larger single-compound zone; for SDDA increase: over larger single-compound zone diameter; for SDDA with BP: quinone combined with BP on one disc, 200 μg of each
# Protocol: 2. Propionibacterium spp.—the principal propionibacterial strain used in these studies was Propionibacterium acnes NCTC 737.
# as §1
# This is a variation on the DDA method, in which two compounds are tested together for their combined antimicrobial activity. It provides a qualitative indication as to whether the compounds are likely to interact synergistically.
# Two test compounds A and B were placed on a single paper disc and the above described DDA procedure repeated.
# Each of the quinones was then subjected, in combination with BP, to the SDDA assay described above.
# For all (S)DDA assays, 200 μg of each compound was loaded onto each disc.
# S. aureus ATCC 29213 [4] = test: Synergy disc diffusion assay (SDDA); format: cell-based, Staphylococcus aureus; conditions: for SDDA area increase / SDDA increase: quinone + BP; for SDDA area increase: over larger single-compound zone; for SDDA increase: over larger single-compound zone diameter; for SDDA with BP: quinone combined with BP on one disc, 200 μg of each (thymoquinone 50 μg)
# Source text: 1. Staphylococcus aureus—the principal staphylococcal test micro-organism used in these studies was Staphylococcus aureus ATCC 29213. This strain is the one recommended for QC/QA purposes in Minimum Inhibitory Concentration (MIC) assays by the US Clinical and Laboratory Standards Institute (formerly the NCCLS), an FDA-recognised body. S. aureus ATCC 29213 is susceptible to beta-lactam antibiotics such as methicillin and to many other antibiotics in clinical use worldwide today. The staphylococci and enterococci were cultured and maintained on Mueller-Hinton Medium (agar and broth) at pH 7.2; they were incubated aerobically at 37° C. for 24 hours. This is a variation on the DDA method, in which two compounds are tested together for their combined antimicrobial activity. It provides a qualitative indication as to whether the compounds are likely to interact synergistically. Two test compounds A and B were placed on a single paper disc and the above described DDA procedure repeated. An increase in diameter of the zone of inhibition, compared to the greater of the zone diameters for the two compounds individually, was taken to indicate potential antimicrobial synergy. […] The larger the increase in zone size, the greater the likelihood of a synergistic interaction between the two test compounds. Each of the quinones was then subjected, in combination with BP, to the SDDA assay described above. In each case, increases in zone diameter (mm) and area (%) were measured with respect to those observed for the compound showing the larger zone diameters during the previous disc diffusion assays on the individual compounds. […] The exceptions were the thymoquinone assays, in which only 50 μg of the benzoquinone was used.
Compound,MIC (P. acnes PRP-010) [µg/mL],DDA + blood (S. aureus ATCC 29213 [1]) [mm],DDA + lipid (S. aureus ATCC 29213 [1]) [mm],DDA + salt (S. aureus ATCC 29213 [1]) [mm],DDA + lipid (P. acnes NCTC 737 [2]) [mm],DDA + salt (P. acnes NCTC 737 [2]) [mm],SDDA area increase (P. acnes NCTC 737 [3]) [%],SDDA increase (P. acnes NCTC 737 [3]) [mm],SDDA with BP (P. acnes NCTC 737 [3]) [mm],SDDA area increase (S. aureus ATCC 29213 [4]) [%],SDDA increase (S. aureus ATCC 29213 [4]) [mm],SDDA with BP (S. aureus ATCC 29213 [4]) [mm]
O=C(OOC(=O)c1ccccc1)c1ccccc1 [benzoyl peroxide],31.2,,,,,,,,,,,
"CC(C)(C)c1cc(O)ccc1O [TBHQ, t-butyl hydroquinone]",3.9,10.89,31.44,54.16,10.37,19.48,211.51,18.55,42.80,169.30,26.77,68.54
O=C1C=CC(=O)C=C1 [p-benzoquinone],,20.31,29.05,27.49,37.98,31.44,77.78,8.29,33.16,37.25,5.03,34.38
"Cc1c(O)ccc(O)c1C [2,3-dimethyl-p-hydroquinone]",,14.32,35.80,34.24,13.75,14.38,113.68,10.63,33.65,52.39,7.83,41.25
"CC1=CC(=O)C(C(C)C)=CC1=O [thymoquinone, 2-iso-propyl-5-methyl-p-benzoquinone]",,0.0,18.99,20.54,49.01,46.49,79.46,9.33,36.79,120.91,7.60,23.24
Oc1ccc(O)cc1 [p-hydroquinone],,14.01,15.56,16.61,0.0,0.0,87.01,8.91,33.16,210.15,14.42,33.36
CCc1cc(O)ccc1O [2-ethyl-p-hydroquinone],,17.74,23.04,24.59,0.0,9.38,84.28,8.23,31.25,105.49,9.13,30.19
